We go through 20 compounds from patent US6828315B1, “1-Amino triazoloc4,3-a! quinazoline-5-ones and/or -5-thiones inhibiting phosphodiesterase IV” (Warner-Lambert LLC, priority 1999, dated 2004).

Series [1] relates to TNFα production in plasma. The series can be described thus: In vivo TNFα model in Wistar rat. The settings on record: po, 1.5 h, 10 mg/kg p.o. 30 min before LPS i.p., plasma TNFα 90 min after LPS, male Wistar rats, read-out: % Inhibition to 10 mg/kg. An excerpt:
The TFNα is a cytokin playing a central role in inflammation mechanisms. Its production may be induced by injection of lipopolysaccharid (LPS). It has been shown that the intracellular AMPc increase, produced in particular by PDE4 inhibitors, decreases the TNFα production in in vitro and in vivo models. Therefore it matters here to quantify in vivo anti-inflammatory potential of the compounds of the invention, administrated by oral route (p.o.) by measuring inhibition of TNFα production in plasma in rat, the latter having received a intraperitoneal injection (i.p.) of lipolysaccharid (LPS). The treatment by the compounds of the invention or the carrier is administrated by oral route in male Wistar rats, 30 min. before LPS injection. The rats are sacrificed 90 min. after LPS stimulation, the blood is harvested on EDTA and TNFα concentration is measured in each plasma sample.

For series [2], the target named is type 4 phosphodiesterases (PDE4). As to the kind of experiment: Inhibition of the phosphodiesterase (PDE4), enzymatic preparation from line U937. The note with it: PDE4 from cytosolic preparation of human cell line U937. It counts as biochemical. As for the experimental part:
The capacity of the formula (I) compounds of the invention to inhibit the cyclic nucleotide phosphodiesterases is evaluated by their Cl50 measurement (necessary concentration to inhibit 50% of enzymatic activity).
The type 4 phosphodiesterases are obtained from a cytosolic preparation extracted from the human origin cellular line U937 according to a method adapted from T. J. Torphy and al., 1992, J.Pharm.Exp. Ther. 263: 1195-1205
The other classes of phosphodiesterases are obtained after partial purification FPLC on Mono Q column. (anion exchange column) according to a method adapted from Lavan B. E., Lakey T., Houslay M. D. Biochemical Pharmacology, 1989, 38(22), 4123-4136., and from Silver P. J and al., 1988, Eur.J. Pharmacol. 150: 85-94, either, from human origin cellular lines for PDE 1 (monocytar line TPH1) and PDE5 (line MCF7 issued from an adenocarcinoma), or from dog aorta for PDE 3, or for the human PDE3A, from gene cloning in insect cells SF21 in baculovirus, according to a method adapted from Luckow, V. A. and al., 1991 in Recombinant DNA Technology&Applications.,eds. Prokop, Bajpai,R. K.&Ho,C. S., pp97-152. The enzymatic activity measurement of the different PDE classes, and in particular the PDE 4, is performed according to a method adapted from W. J. Thompson and al. 1979, Advances in Cyclic Nucleotide Research, Vol. 10: 69-92, ed. G. Brooker and al. Raven Press, NY.
For the Cl50 determination, the enzymatic activity is measured in the presence of inhibitor within concentration margins of 0.1 to 100 μM.
The following table illustrates the PDE4 inhibitory activity from enzymatic preparation obtained from the line U937.

Series [3] deals with TNFα production by human leukocytes. As to the kind of experiment: Inhibition of TNFα production by human leukocytes stimulated by lipopolysaccharid. It counts as cell-based. The settings on record: Leukocyte; LPS-stimulated human leukocytes in 75% human serum; TNFα by ELISA after 15-18 hours. The procedure: This test aims to evaluate capacity of the compounds of the invention to inhibit TNFα (tumor necrosis-α) production by human leukocytes in the presence of high human serum concentration (75%). […] The test described here is based on the use of human leukocytes cultivated in 75% of human serum. It had been previously documented that these conditions simulate the observed situation when TNFα dosage is performed in human blood.
The compounds to test are dissolved into 20 mM (sometimes 6 mM) of DMSO. 100 μl of DMSO are distributed into 7 wells of a a 96 well microtiter plate (wells B to H). 150 μl of the compound solution are distributed into line A wells. 50 μl are then sequentially transferred 7 times. 20 μl of this serial dilutions of compounds are sequentially transferred twice in wells containing 180 μl of RPMI 1640 (Gibco). 50 μl of these dilutions are then transferred in wells where cells will be added.
Each test includes a series of eight wells without LPS (100% of inhibition), eight wells with LPS (0% of inhibition) and a series of Rolipram dilutions in order to enable comparison of the tests between each other and then to evaluate their variability.
A leukocyte vial is unfrozen in bain-marie (37° C.), its content is transferred into a 15 ml tube containing 10 ml of RPMI added with 5% of human serum (RPMI-5% HS). The cells are sedimented (800 g, 6 minutes, 4° C.), resuspended in 10 ml of the same medium and counted by dilution in Trypan blue solution. After centrifugating (800 g, 6 minutes, 4° C.), the cells are resuspended to 2×10^6/ml in human serum.
To 50 μl aliquots of different dilutions of compounds, 100 μl of cells are added. The plates are then incubated 30 minutes at 37° C., then 50 μl of solution 4 μg/ml of LPS prepared in human serum are added. The plates are incubated for the night at 37° C.
After incubation for 15-18 hours, 90 μl of growth supernatant are taken and transferred into rounded-bottom microtiter wells. The TNFα presence is then evaluated by ELISA (Pharmingen) by using 50 μl of supernatant. The protocol described by the manufacturer is strictly applied.
For orientation: An ELISA detects its analyte on a solid surface through an enzyme-linked reagent.

As usually defined, the melting point is the temperature of the solid-liquid transition. As usually defined, the IC50 is the concentration that inhibits the measured activity by half. Low values mean greater potency in that assay, high ones weaker potency in that assay. Consider `COc1ccc(Cn2c(=O)c3cc(Br)ccc3n3c(N4CCCCCC4)nnc23)cc1OC` [Compound 35, 1-Azepan-1-yl-7-bromo-4-(3,4-dimethoxy-benzyl)-4H-[1,2,4]triazolo[4,3-a]quinazolin-5-one], for which the melting point stood at 185 °C. In addition, in series [1], the change in vivo at 10 mg/kg was -51%. In addition, 20 nM corresponded to half-maximal inhibition in series [2] (IC50).

Compound `N#Cc1ccc(Cn2c(=O)c3cc(Br)ccc3n3c(N4CCCC4)nnc23)cc1` [Compound 46, 4-(7-Bromo-5-oxo-1-pyrrolidin-1-yl-5H-[1,2,4]triazolo[4,3-a]quinazolin-4-ylmethyl)-benzonitrile] returned a melting point of 116 °C. Moreover, the change in vivo at 10 mg/kg in series [1] is -58%. In addition, inhibition in series [2] was half-maximal at 90 nM (IC50).

The compound `Cc1ccc2c(c1)c(=O)n(Cc1cccnc1)c1nnc(N3CCCCCC3)n21` [Compound 91, 1-Azepan-1-yl-7-methyl-4-pyridin-3-ylmethyl-4H-[1,2,4]triazolo[4,3-a]quinazolin-5-one] yielded a melting point of 175 °C. Moreover, in series [1], the change in vivo at 10 mg/kg is -70%.

With `Cc1ccc2c(c1)c(=O)n(CC=Cc1ccccc1)c1nnc(N3CCCCCC3)n21` [Compound 92, 1-Azepan-1-yl-7-methyl-4-(3-phenyl-allyl)-4H-[1,2,4]triazolo[4,3-a]quinazolin-5-one], the melting point is 195 °C. The compound also had a concentration for half-maximal inhibition (IC50) in series [2] of 30 nM.

`Cc1ccc2c(c1)c(=O)n(Cc1ccc(CC(=O)O)cc1)c1nnc(N3CCCC3)n21` [Compound 96, [4-(7-Methyl-5-oxo-1-pyrrolidin-1-yl-5H-[1,2,4]triazolo[4,3-a]quinazolin-4-ylmethyl)-phenyl]-acetic acid] returned a melting point of 262 °C. Also, the IC50 in series [2] worked out at 58 nM.

`Cc1ccc2c(c1)c(=O)n(CC=Cc1ccccc1)c1nnc(N3CCCC3)n21` [Compound 98, 7-Methyl-4-(3-phenyl-allyl)-1-pyrrolidin-1-yl-4H-[1,2,4]triazolo[4,3-a]quinazolin-5-one] gave a melting point of 173 °C. The change in vivo at 10 mg/kg in series [1] was -75%. Half-maximal inhibition in series [2] (IC50) was put at 29 nM.

As to `Cc1ccc2c(c1)c(=O)n(C/C=C/c1ccccc1)c1nnc(N(C)C)n21` [Compound 103, 1-Dimethylamino-7-methyl-4-((E)-3-phenyl-allyl)-4H-[1,2,4]triazolo[4,3-a]quinazolin-5-one], the melting point was 171 °C. In series [3], this compound yielded an IC50 of 10700 nM. Moreover, in series [2], the half-inhibitory concentration (IC50) amounted to 39 nM.

With `COC(=O)C(c1ccccc1)n1nc(N(C)C)n2c3ccc(Br)cc3c(=O)nc12` (stereo not shown) [Compound 156, (7-Bromo-1-dimethylamino-5-oxo-5H-[1,2,4]triazolo[4,3-a]quinazolin-3-yl)-phenyl-acetic acid methyl ester], the melting point amounted to 83 °C. For the same compound, half-maximal inhibition in series [2] (IC50) was put at 90 nM.

Take `O=c1c2cc(Br)ccc2n2c(N3CCCCCC3)nnc2n1Cc1ccccc1` [Compound 163, 1-(azepan-1-yl)-4-benzyl-7-bromo-4H-[1,2,4]triazolo[4,3-a]-quinazolin-5-one]: in series [1], the change in vivo at 10 mg/kg is -64%.

Compound `O=c1c2cc(I)ccc2n2c(N3CCCC3)nnc2n1Cc1ccccc1` [Compound 189, 4-Benzyl-7-iodo-1-pyrrolidin-1-yl-4H-[1,2,4]triazolo[4,3-a]quinazolin-5-one] showed a melting point of 184 °C. This compound showed a half-maximal inhibitory concentration (IC50) in series [2] of 78 nM.

`Cc1ccc2c(c1)c(=O)n(Cc1ccccc1)c1nnc(N3CCCCCC3)n21` [Compound 190, 1-Azepan-1-yl-4-benzyl-7-methyl-4H-[1,2,4]triazolo[4,3-a]quinazolin-5-one] yielded a melting point of 183 °C. This compound also yielded an IC50 in series [2] of 190 nM.

As for `Nc1ccc2c(c1)c(=O)n(Cc1ccccc1)c1nnc(N3CCCCCC3)n21` [Compound 224, 7-Amino-1-azepan-1-yl-4-benzyl-4H-[1,2,4]triazolo[4,3-a]quinazolin-5-one], the melting point is 240 °C (dec.). Besides, the concentration for half-maximal inhibition (IC50) in series [2] amounted to 75 nM.

For the compound `Nc1ccc2c(c1)c(=O)n(C/C=C/c1cccnc1)c1nnc(N3CCCC3)n21` [Compound 227, 7-Amino-4-((E)-3-pyridin-3-yl-allyl)-1-pyrrolidin-1-yl-4H-[1,2,4]triazolo[4,3-a]quinazolin-5-one], the melting point was determined as 201 °C. Moreover, the 50% inhibitory concentration (IC50) in series [2] stood at 28 nM.

Take `CN(C)c1nnc2n(C/C=C/c3ccccc3)c(=O)c3cc(N)ccc3n12` [Compound 229, 7-Amino-1-dimethylamino-4-((E)-3-phenyl-allyl)-4H-[1,2,4]triazolo[4,3-a]quinazolin-5-one]: the melting point was 198 °C. The compound further showed an IC50 in series [2] of 80 nM.

The compound `CNc1ccc2c(c1)c(=O)n(Cc1ccccc1)c1nnc(N3CCCC3)n21` [Compound 230, 4-Benzyl-7-methylamino-1-pyrrolidin-1-yl-4H-[1,2,4]triazolo[4,3-a]quinazolin-5-one] registered a melting point of 171 °C. For the same compound, it took 2 nM to reach half-maximal inhibition in series [2] (IC50).

Consider `CNc1ccc2c(c1)c(=O)n(Cc1ccc(C#N)cc1)c1nnc(N3CCCC3)n21` [Compound 231, 4-(7-Methylamino-5-oxo-1-pyrrolidin-1-yl-5H-[1,2,4]triazolo[4,3-a]quinazolin-4-ylmethyl)-benzonitrile], for which the melting point is 270 °C. Further, the 50% inhibitory concentration (IC50) in series [2] was 0.27 nM.

As for `CCNc1ccc2c(c1)c(=O)n(Cc1ccccc1)c1nnc(N3CCCC3)n21` [Compound 233, 4-Benzyl-7-ethylamino-1-pyrrolidin-1-yl-4H-[1,2,4]triazolo[4,3-a]quinazolin-5-one], the melting point is 225 °C. In series [2], this compound yielded an IC50 of 180 nM.

`CN(C)C(=O)Cc1ccc(Cn2c(=O)c3cc(Br)ccc3n3c(N4CCCC4)nnc23)cc1` [Compound 242, 2-[4-(7-Bromo-5-oxo-1-pyrrolidin-1-yl-5H-[1,2,4]triazolo[4,3-a]quinazolin-4-ylmethyl)-phenyl]-N,N-dimethyl-acetamide] came in with a melting point of 202 °C. Also, in series [2], the concentration for half-maximal inhibition (IC50) was 11 nM.

On to `O=C(Cc1ccc(Cn2c(=O)c3cc(Br)ccc3n3c(N4CCCC4)nnc23)cc1)NO` [Compound 243, 2-[4-(7-Bromo-5-oxo-1-pyrrolidin-1-yl-5H-[1,2,4]triazolo[4,3-a]quinazolin-4-ylmethyl)-phenyl]-N-hydroxy-acetamide], for which the melting point amounted to 229 °C. This compound also showed an IC50 in series [2] of 28 nM.

`Cc1ccc2c(c1)c(=S)n(CC=Cc1cccnc1)c1nnc(N(C)C)n21` [Compound 246, 1-Dimethylamino-7-methyl-4-(3-pyridin-3-yl-allyl)-4H-[1,2,4]triazolo[4,3-a]quinazoline-5-thione]: the melting point was 133 °C. The compound also came in with an IC50 in series [2] of 41 nM.
